According to ChEMBL document CHEMBL4420075, “Seriniquinones, melanoma-specific anticancer agents” (2016):
Calls of active or inactive are those of the source. No cut-off for these calls is given here.

What was measured:
[1] = test system: HCT-116; assay: Cytotoxicity in human HCT116 cells by MTT assay; assay type: functional, cell-based
[2] = biological target: T1, Dermcidin (Homo sapiens) (UniProt P81605); assay: Covalent binding affinity to DCD-1L (unknown origin) at 50 uM incubated for 24 hrs by denatured SDS-PAGE gel electrophoresis
T1 sequence (whole entry): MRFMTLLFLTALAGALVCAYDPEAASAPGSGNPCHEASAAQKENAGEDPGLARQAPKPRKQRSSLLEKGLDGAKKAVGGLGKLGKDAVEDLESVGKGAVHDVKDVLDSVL

| SMILES | IC50 [1] [nM] | Activity [2] |
| --- | --- | --- |
| O=c1c2cc(O)ccc2c(=O)c2c1sc1c(=O)c3cc(O)ccc3c(=O)c12 | 4400 |  |
| O=c1c2ccccc2c(=O)c2c1sc1c(=O)c3ccc(O)cc3c(=O)c12 | 1200 |  |
| O=C(Nc1ccc2c(=O)c3c(sc4c(=O)c5cc(NC(=O)C(F)(F)F)ccc5c(=O)c43)c(=O)c2c1)C(F)(F)F | 580 |  |
| O=C(Nc1ccc2c(=O)c3sc4c(=O)c5ccc(NC(=O)C(F)(F)F)cc5c(=O)c4c3c(=O)c2c1)C(F)(F)F | 480 |  |
| CC(=O)Oc1ccc2c(=O)c3c(sc4c(=O)c5cc(OC(C)=O)ccc5c(=O)c43)c(=O)c2c1 | 5800 |  |
| O=C(O)CCc1ccc2c(=O)c3c(sc4c(=O)c5ccccc5c(=O)c43)c(=O)c2c1 |  | Active |
| O=c1c2ccccc2c(=O)c2c1sc1c(=O)c3ccc(Cl)cc3c(=O)c12 | 280 |  |
| O=c1c2ccccc2c(=O)c2c1sc1c(=O)c3cc(O)ccc3c(=O)c12 | 1300 |  |
